Laboratory results from PubChem BioAssay (NCI).
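1) Cells in 96-well plates. 2) Compound, 48 h, 5 concentrations. 3) Linear interpolation between surrounding doses. 4) Unreached endpoint = highest concentration. The concentration for 50% growth inhibition is given as GI50. Definition used: TGI = concentration required for complete inhibition of growth.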

Key:
Experiment in all cases: NCI tumour cell line growth inhibition, 48 h
HT29 colon = tested on: HT29 colon
BT-549 breast = tested on: BT-549 breast
OVCAR-3 ovarian = tested on: OVCAR-3 ovarian
LOX IMVI melanoma = tested on: LOX IMVI melanoma
SK-MEL-5 melanoma = tested on: SK-MEL-5 melanoma
U251 CNS = tested on: U251 CNS
SF-268 CNS = tested on: SF-268 CNS
MDA-MB-231 breast = tested on: MDA-MB-231 breast
MCF7 breast = tested on: MCF7 breast
PC-3 prostate = tested on: PC-3 prostate
KM12 colon = tested on: KM12 colon
M14 melanoma = tested on: M14 melanoma
SNB-75 CNS = tested on: SNB-75 CNS
EKVX NSCLC = tested on: EKVX NSCLC
HCT-116 colon = tested on: HCT-116 colon
OVCAR-4 ovarian = tested on: OVCAR-4 ovarian
SF-295 CNS = tested on: SF-295 CNS
NCI/ADR-RES ovarian = tested on: NCI/ADR-RES ovarian
NCI-H522 lung = tested on: NCI-H522 lung
SK-MEL-28 melanoma = tested on: SK-MEL-28 melanoma
MDA-MB-435 = tested on: MDA-MB-435
OVCAR-5 ovarian = tested on: OVCAR-5 ovarian
COLO 205 colon = tested on: COLO 205 colon
HOP-62 NSCLC = tested on: HOP-62 NSCLC
SK-OV-3 ovarian = tested on: SK-OV-3 ovarian
UO-31 renal = tested on: UO-31 renal
OVCAR-8 ovarian = tested on: OVCAR-8 ovarian
HCC-2998 colon = tested on: HCC-2998 colon
A498 renal = tested on: A498 renal
HCT-15 colon = tested on: HCT-15 colon
RXF 393 renal = tested on: RXF 393 renal
MALME-3M melanoma = tested on: MALME-3M melanoma
SK-MEL-2 melanoma = tested on: SK-MEL-2 melanoma
IGROV1 ovarian = tested on: IGROV1 ovarian
SF-539 CNS = tested on: SF-539 CNS
RPMI-8226 leukemia = tested on: RPMI-8226 leukemia
T-47D breast = tested on: T-47D breast
786-0 renal = tested on: 786-0 renal
UACC-62 melanoma = tested on: UACC-62 melanoma
SW-620 colon = tested on: SW-620 colon
SNB-19 CNS = tested on: SNB-19 CNS
SN12C renal = tested on: SN12C renal
TK-10 renal = tested on: TK-10 renal
HS 578T breast = tested on: HS 578T breast
HL-60(TB) leukemia = tested on: HL-60(TB) leukemia
NCI-H460 lung = tested on: NCI-H460 lung
K-562 leukemia = tested on: K-562 leukemia
MOLT-4 leukemia = tested on: MOLT-4 leukemia
CAKI-1 renal = tested on: CAKI-1 renal
DU-145 prostate = tested on: DU-145 prostate
ACHN renal = tested on: ACHN renal
A549 NSCLC = tested on: A549 NSCLC

Fc1ccc(-c2ncn(C3CCNCC3)c2-c2ccnc(Oc3cccc(C(F)(F)F)c3)n2)cc1
GI50 (HT29 colon): 2.54 µM | TGI (HT29 colon): 5.54 µM | GI50 (BT-549 breast): 4.34 µM | TGI (BT-549 breast): 9.51 µM | GI50 (OVCAR-3 ovarian): 3.88 µM | TGI (OVCAR-3 ovarian): 7.26 µM | GI50 (LOX IMVI melanoma): 8.96 µM | TGI (LOX IMVI melanoma): 14.1 µM | GI50 (SK-MEL-5 melanoma): 3.28 µM | TGI (SK-MEL-5 melanoma): 6.5 µM | GI50 (U251 CNS): 3.61 µM | TGI (U251 CNS): 7.08 µM | GI50 (SF-268 CNS): 3.64 µM | TGI (SF-268 CNS): 7.37 µM | GI50 (MDA-MB-231 breast): 3.96 µM | TGI (MDA-MB-231 breast): 7.56 µM | GI50 (MCF7 breast): 3.68 µM | TGI (MCF7 breast): 7.3 µM | GI50 (PC-3 prostate): 3.7 µM | TGI (PC-3 prostate): 7.2 µM | GI50 (KM12 colon): 3.93 µM | TGI (KM12 colon): 7.36 µM | GI50 (M14 melanoma): 4.54 µM | TGI (M14 melanoma): 8.73 µM | GI50 (SNB-75 CNS): 2.01 µM | TGI (SNB-75 CNS): 6.52 µM | GI50 (EKVX NSCLC): 3.63 µM | TGI (EKVX NSCLC): 8.3 µM | GI50 (HCT-116 colon): 3.65 µM | TGI (HCT-116 colon): 7.29 µM | GI50 (OVCAR-4 ovarian): 3.62 µM | TGI (OVCAR-4 ovarian): 7.26 µM | GI50 (SF-295 CNS): 3.92 µM | TGI (SF-295 CNS): 8.1 µM | GI50 (NCI/ADR-RES ovarian): 4.27 µM | TGI (NCI/ADR-RES ovarian): 9.03 µM | GI50 (NCI-H522 lung): 4.03 µM | TGI (NCI-H522 lung): 7.95 µM | GI50 (SK-MEL-28 melanoma): 3.62 µM | TGI (SK-MEL-28 melanoma): 6.93 µM | GI50 (MDA-MB-435): 3.99 µM | TGI (MDA-MB-435): 8.15 µM | GI50 (OVCAR-5 ovarian): 3.21 µM | TGI (OVCAR-5 ovarian): 6.37 µM | GI50 (COLO 205 colon): 3.83 µM | TGI (COLO 205 colon): 7.45 µM | GI50 (HOP-62 NSCLC): 3.75 µM | TGI (HOP-62 NSCLC): 7.47 µM | GI50 (SK-OV-3 ovarian): 3.82 µM | TGI (SK-OV-3 ovarian): 7.31 µM | GI50 (UO-31 renal): 2.8 µM | TGI (UO-31 renal): 6.41 µM | GI50 (OVCAR-8 ovarian): 4.17 µM | TGI (OVCAR-8 ovarian): 8.58 µM | GI50 (HCC-2998 colon): 3.92 µM | TGI (HCC-2998 colon): 8.35 µM | GI50 (A498 renal): 1.37 µM | TGI (A498 renal): 6.91 µM | GI50 (HCT-15 colon): 3.79 µM | TGI (HCT-15 colon): 7.25 µM | GI50 (RXF 393 renal): 2.66 µM | TGI (RXF 393 renal): 6.42 µM | GI50 (MALME-3M melanoma): 4.66 µM | TGI (MALME-3M melanoma): 10.1 µM | GI50 (SK-MEL-2 melanoma): 4.62 µM | TGI (SK-MEL-2 melanoma): 8.84 µM | GI50 (IGROV1 ovarian): 3.67 µM | TGI (IGROV1 ovarian): 7.88 µM | GI50 (SF-539 CNS): 3.92 µM | TGI (SF-539 CNS): 7.68 µM | GI50 (RPMI-8226 leukemia): 4.87 µM | TGI (RPMI-8226 leukemia): 11.7 µM | GI50 (T-47D breast): 2.93 µM | TGI (T-47D breast): 6.43 µM | GI50 (786-0 renal): 3.82 µM | TGI (786-0 renal): 7.49 µM | GI50 (UACC-62 melanoma): 4.05 µM | TGI (UACC-62 melanoma): 7.59 µM | GI50 (SW-620 colon): 3.56 µM | TGI (SW-620 colon): 7.03 µM | GI50 (SNB-19 CNS): 3.94 µM | TGI (SNB-19 CNS): 7.67 µM | GI50 (SN12C renal): 3.93 µM | TGI (SN12C renal): 7.47 µM | GI50 (TK-10 renal): 3.68 µM | TGI (TK-10 renal): 7.22 µM | GI50 (HS 578T breast): 1.98 µM | TGI (HS 578T breast): 7.07 µM | GI50 (HL-60(TB) leukemia): 4.58 µM | TGI (HL-60(TB) leukemia): 9.6 µM | GI50 (NCI-H460 lung): 3.82 µM | TGI (NCI-H460 lung): 7.81 µM | GI50 (K-562 leukemia): 3.8 µM | TGI (K-562 leukemia): 9.12 µM | GI50 (MOLT-4 leukemia): 4.15 µM | TGI (MOLT-4 leukemia): 9.48 µM | GI50 (CAKI-1 renal): 4.38 µM | TGI (CAKI-1 renal): 9.12 µM | GI50 (DU-145 prostate): 3.99 µM | TGI (DU-145 prostate): 7.37 µM | GI50 (ACHN renal): 3.29 µM | TGI (ACHN renal): 6.47 µM | GI50 (A549 NSCLC): 4.23 µM | TGI (A549 NSCLC): 7.94 µM
